These results are taken from ChEMBL document CHEMBL1201862, “PubChem BioAssay data set” (2004).

Structures are written as SMILES. Activity calls are given as the source filed them. Unless noted, the rule behind the calls is not given here.

Experiment [1] can be described thus: viability of uninfected HEp-2 cells – cell-based, HTS, cytotoxicity control for RSV inhibitor project, dose response (AID 2410). The format is functional. As to conditions: human respiratory syncytial virus.
Experiment [2] can be described thus: Trypanosoma cruzi growth suppression in host cells – NIH3T3 host cells, beta-gal luminescence, confirmation (AID 2044).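 Also: intracellular parasites grown in NIH/3T3 mouse fibroblasts as host cells; luminescent beta-galactosidase reporter signal from transgenic T. cruzi replicating inside host cells; inhibitors lower the luminescence signal.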 The format is functional, cell-based.
Experiment [3] in a line: Luminescence-based dose response cell-based high throughput screening assay for cytotoxic compounds using the IEC-6 intestinal epithelial cell line. [Related pubchem assays: 1858 (Summary AID.), 1825 (Counterscreen.), 1907 (Confirmation screen.)]. Type of experiment: functional. Background: A counterscreen serves to expose hits that act by an unwanted route or on another target.

The nature of experiment [4]: NIH3T3 cell viability loss – ATP luminescence, mouse fibroblasts, counter-screen, dose response (AID 2010).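 Also: cells exposed to compound for about 90 hours before reading.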 The format is functional, cell-based.
For experiment [5], the target named is T1, Rac GTPase-activating protein 1 (Homo sapiens, UniProt Q9H0H5).
T1 sequence (Q9H0H5 whole entry): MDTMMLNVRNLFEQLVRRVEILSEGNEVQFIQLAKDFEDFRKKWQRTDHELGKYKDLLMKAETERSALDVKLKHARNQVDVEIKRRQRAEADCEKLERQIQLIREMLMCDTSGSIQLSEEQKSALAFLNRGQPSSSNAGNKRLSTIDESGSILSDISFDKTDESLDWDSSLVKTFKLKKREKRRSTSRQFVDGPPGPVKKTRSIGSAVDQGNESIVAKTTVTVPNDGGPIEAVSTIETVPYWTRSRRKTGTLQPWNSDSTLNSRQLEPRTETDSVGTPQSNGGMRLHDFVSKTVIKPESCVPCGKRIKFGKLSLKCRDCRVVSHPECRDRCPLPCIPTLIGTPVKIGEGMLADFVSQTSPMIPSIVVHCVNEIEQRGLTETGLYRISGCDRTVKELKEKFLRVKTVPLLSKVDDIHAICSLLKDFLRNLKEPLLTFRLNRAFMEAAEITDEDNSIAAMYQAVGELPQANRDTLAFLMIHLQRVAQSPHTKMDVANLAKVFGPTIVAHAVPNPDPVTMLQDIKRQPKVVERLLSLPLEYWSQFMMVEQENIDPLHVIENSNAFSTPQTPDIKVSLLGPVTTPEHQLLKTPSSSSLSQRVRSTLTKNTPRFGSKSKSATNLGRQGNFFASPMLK
Description: blockers of MgcRacGAP-driven Rac1 GTP hydrolysis – biochemical, ADP Hunter fluorescence, primary and confirmatory, confirmation (AID 624330). Type of experiment: functional.

Experiment [6] deals with Sphingosine 1-phosphate receptor 2 (Homo sapiens, UniProt O95136). Description: Dose Response Cell-Based Assay for Agonists of the Sphingosine 1-Phosphate Receptor 2 (S1P2): Purchased Analogues. [Related pubchem assays: 1192, 373, 439 ]. The format is functional.
Sphingosine 1-phosphate receptor 2, sequence (O95136 whole entry): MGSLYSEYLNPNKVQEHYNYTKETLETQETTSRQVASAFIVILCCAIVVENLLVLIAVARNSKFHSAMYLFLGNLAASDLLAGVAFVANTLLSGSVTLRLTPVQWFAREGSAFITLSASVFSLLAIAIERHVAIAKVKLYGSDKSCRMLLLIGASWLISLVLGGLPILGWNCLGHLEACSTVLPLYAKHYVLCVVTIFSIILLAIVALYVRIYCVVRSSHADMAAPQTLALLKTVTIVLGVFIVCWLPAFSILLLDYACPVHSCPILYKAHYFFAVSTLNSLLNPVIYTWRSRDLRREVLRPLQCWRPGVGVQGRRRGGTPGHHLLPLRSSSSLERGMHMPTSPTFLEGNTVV
Experiment [7] addresses Sphingosine 1-phosphate receptor 1 (Homo sapiens, UniProt P21453). Description: Dose Response Cell-Based Assay for Agonists of the Sphingosine 1-Phosphate Receptor 1 (S1P1): Purchased Analogues. [Related pubchem assays: 1192, 373, 439 ]. The format is functional.
The target in experiment [8] is Sphingosine 1-phosphate receptor 3 (Homo sapiens, UniProt Q99500). Description: Dose Response Cell-Based Assay for Agonists of the Sphingosine 1-Phosphate Receptor 3 (S1P3): Purchased Analogues. [Related pubchem assays: 373, 439 ]. The format is functional.
Sphingosine 1-phosphate receptor 3, sequence (Q99500 whole entry): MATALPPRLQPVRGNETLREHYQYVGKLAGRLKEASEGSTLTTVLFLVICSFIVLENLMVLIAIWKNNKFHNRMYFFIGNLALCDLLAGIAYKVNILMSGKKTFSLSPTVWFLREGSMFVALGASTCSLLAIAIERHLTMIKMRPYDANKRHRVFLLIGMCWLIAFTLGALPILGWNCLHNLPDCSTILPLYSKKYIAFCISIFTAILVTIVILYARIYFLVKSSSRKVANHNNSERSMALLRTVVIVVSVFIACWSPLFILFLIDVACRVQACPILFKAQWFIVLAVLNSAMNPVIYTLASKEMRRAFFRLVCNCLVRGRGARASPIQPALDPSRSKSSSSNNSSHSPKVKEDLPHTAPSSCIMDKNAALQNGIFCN
Experiment [9] deals with Luciferin 4-monooxygenase (Photinus pyralis, UniProt P08659). The experiment is described as follows: Counter Screen for Luciferase-based Assay Positives. [Related pubchem assays: 620, 618, 411 ].
Luciferin 4-monooxygenase, sequence (P08659 whole entry): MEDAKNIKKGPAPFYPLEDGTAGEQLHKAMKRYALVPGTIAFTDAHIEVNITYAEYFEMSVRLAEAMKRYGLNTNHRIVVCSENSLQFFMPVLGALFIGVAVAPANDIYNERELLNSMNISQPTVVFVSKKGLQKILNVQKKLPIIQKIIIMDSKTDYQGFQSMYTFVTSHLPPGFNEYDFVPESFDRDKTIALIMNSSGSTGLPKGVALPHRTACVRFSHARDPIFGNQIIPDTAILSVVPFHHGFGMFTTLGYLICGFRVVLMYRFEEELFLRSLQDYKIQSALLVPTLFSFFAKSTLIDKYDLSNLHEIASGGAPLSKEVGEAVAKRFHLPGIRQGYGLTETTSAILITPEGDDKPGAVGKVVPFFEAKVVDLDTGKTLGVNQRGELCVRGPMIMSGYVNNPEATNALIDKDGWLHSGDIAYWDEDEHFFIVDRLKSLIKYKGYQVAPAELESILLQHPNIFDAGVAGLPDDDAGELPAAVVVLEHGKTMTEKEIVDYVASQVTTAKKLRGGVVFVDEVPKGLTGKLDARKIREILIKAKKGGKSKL
The target of experiment [10] is T2, DNA repair and recombination protein RAD54-like (Homo sapiens, UniProt Q92698).
T2 sequence (Q92698 whole entry): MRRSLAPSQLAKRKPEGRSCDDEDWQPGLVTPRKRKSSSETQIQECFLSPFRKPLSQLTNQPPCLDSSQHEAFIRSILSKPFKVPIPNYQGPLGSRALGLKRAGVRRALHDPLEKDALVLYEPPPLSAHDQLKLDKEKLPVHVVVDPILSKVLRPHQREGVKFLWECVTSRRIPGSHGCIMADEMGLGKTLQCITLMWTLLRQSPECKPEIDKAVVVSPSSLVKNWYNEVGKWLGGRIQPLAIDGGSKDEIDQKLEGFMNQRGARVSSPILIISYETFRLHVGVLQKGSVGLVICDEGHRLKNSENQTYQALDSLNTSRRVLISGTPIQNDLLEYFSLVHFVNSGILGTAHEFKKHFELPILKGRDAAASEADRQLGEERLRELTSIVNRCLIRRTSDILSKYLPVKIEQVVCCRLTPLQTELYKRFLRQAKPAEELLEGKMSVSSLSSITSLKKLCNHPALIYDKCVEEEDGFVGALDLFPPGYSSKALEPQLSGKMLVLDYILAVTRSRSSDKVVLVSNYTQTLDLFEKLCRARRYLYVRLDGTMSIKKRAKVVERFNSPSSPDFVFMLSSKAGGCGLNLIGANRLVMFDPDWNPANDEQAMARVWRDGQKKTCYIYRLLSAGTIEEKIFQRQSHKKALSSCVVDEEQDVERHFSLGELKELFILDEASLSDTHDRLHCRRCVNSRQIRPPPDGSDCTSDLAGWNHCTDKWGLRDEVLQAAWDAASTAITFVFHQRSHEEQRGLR
The experiment is described as follows: RAD54 Holliday junction migration blockers – biochemical, fluorescence, cherry-picked samples, dose series, confirmation (AID 651657). The format is functional.

Sphingosine 1-phosphate receptor 1, sequence (P21453 whole entry): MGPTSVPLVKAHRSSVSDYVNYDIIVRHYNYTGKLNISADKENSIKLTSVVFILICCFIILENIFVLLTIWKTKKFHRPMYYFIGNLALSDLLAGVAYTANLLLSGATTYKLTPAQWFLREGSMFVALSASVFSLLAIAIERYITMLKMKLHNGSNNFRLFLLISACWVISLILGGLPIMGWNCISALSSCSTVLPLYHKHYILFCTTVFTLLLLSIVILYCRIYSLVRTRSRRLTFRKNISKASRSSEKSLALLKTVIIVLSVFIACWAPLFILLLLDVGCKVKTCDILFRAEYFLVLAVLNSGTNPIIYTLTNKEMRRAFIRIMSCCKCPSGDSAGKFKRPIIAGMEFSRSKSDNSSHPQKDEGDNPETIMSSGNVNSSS

In general, CC50 refers to the concentration at which the toxic effect on the cells reaches its halfway point. The term EC50 denotes the concentration that produces a half-maximal response. What is called IC50 is the point on the concentration scale where inhibition reaches its midpoint. In the case of `O=C(N/N=C/c1ccc(O)cc1)Nc1cccc2nsnc12`, in experiment [1], the 50% cytotoxic concentration (CC50) was > 50 µM (active). The EC50 in [2] was 0.356 µM (active); in [4], 10.8 µM (active). In addition, the half-inhibitory concentration (IC50) in experiment [3] is 2.51 µM (active); in experiment [5], 63.5 µM (active).
Take `Cc1ccc(-c2cc(C(=O)NC3CCCCC3)no2)cc1`: the EC50 in [6] is > 10 µM (not active); in experiment [7], 0.194 µM (active); in [8] it was > 50 µM (not active).
Broadly, the AC50 is the concentration at which the activity in the assay is half-maximal. Regarding `COc1ccc2nc(-c3ccc(N)cc3)[nH]c2c1`, the EC50 in experiment [9] was 0.38 µM (active). For the same compound, the AC50 in experiment [10] is 35.1 µM (active).
